Tests used:
[1] = Vapor sorption measurement (index of hygroscopicity), DVS-1 apparatus; assay type: physicochemical; details: relative humidity 70%, change calculated based on weight at relative humidity 0%, sample about 7 mg
Description: A vapor sorption measurement to provide an index of hygroscopicity was performed using a DVS-1 vapor sorption apparatus (manufactured by SMS) under the following conditions. A sample of about 7 mg was used and the relative humidity was increased by 10% within the range of from 0% to 90%, and finally to 95%. The weight change was recorded at each predetermined relative humidity, and the amount of change (%) was calculated based on the weight at relative humidity 0%. As the samples, compound 1-2 (hereinafter to be referred to as a free form) obtained according to the method described in WO 2006/028284, Example 2, compound 1-3 (hereinafter to be referred to as hydrobromide Form I crystal) obtained according to the method described in Example 1 and compound 2 (hereinafter to be referred to as hydrobromide Form II crystal) obtained according to the method described in Example 2 were used.

CCR3 = molecular target: T1, CCR3 (Homo sapiens, UniProt P51677); details: known from WO2006/028284, Table 1 of Experimental Example 1; cited from earlier work
T1 sequence (P51677 1-355): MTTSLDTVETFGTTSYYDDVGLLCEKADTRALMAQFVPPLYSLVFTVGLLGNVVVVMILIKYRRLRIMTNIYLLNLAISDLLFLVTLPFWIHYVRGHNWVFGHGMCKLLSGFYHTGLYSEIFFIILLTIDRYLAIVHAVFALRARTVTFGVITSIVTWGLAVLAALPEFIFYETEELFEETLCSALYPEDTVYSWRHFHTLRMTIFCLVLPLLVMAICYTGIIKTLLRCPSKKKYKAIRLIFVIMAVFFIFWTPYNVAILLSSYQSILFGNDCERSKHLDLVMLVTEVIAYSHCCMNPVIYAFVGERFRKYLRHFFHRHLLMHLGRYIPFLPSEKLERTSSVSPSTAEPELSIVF

weight change (gain) due to vapor sorption [1] [%] | weight change (gain) due to vapor sorption ([1]; hydrobromide) [%] | SMILES | CCR3 antagonism / inhibition of CCR3-ligand binding (CCR3)
3.3 | – | Br.O=C(O)Cc1csc(SCC(=O)NC[C@H]2CN(Cc3ccc(Cl)c(Cl)c3)CCO2)n1 [free form, (2S)-[4-(carboxymethyl)thiazol-2-ylthio]-N-{[4-(3,4-dichlorobenzyl)morpholin-2-yl]methyl}acetamide] | inhibit the bond between CCR3 and a ligand thereof, and act as an antagonist
– | 0.1 | Br.O=C(O)Cc1csc(SCC(=O)NC[C@H]2CN(Cc3ccc(Cl)c(Cl)c3)CCO2)n1 [hydrobromide Form I crystal, (2S)-[4-(carboxymethyl)thiazol-2-ylthio]-N-{[4-(3,4-dichlorobenzyl)morpholin-2-yl]methyl}acetamide hydrobromide] | –
– | 1.4 | Br.O=C(O)Cc1csc(SCC(=O)NC[C@H]2CN(Cc3ccc(Cl)c(Cl)c3)CCO2)n1 [hydrobromide Form II crystal, (2S)-[4-(carboxymethyl)thiazol-2-ylthio]-N-{[4-(3,4-dichlorobenzyl)morpholin-2-yl]methyl}acetamide hydrobromide] | –

Source: patent publication US8030303B2, “Salt of morpholine compound” (Mitsubishi Tanabe Pharma Corporation, priority 2006, dated 2011)
